We go through five molecules from US20230355622A1, “METHODS OF CHEMOVACCINATION AGAINST PLASMODIUM INFECTIONS” (Merck Sharp & Dohme LLC, priority 2020, published 2023).

The subject of one test is parasite. Nature of the test: Parasite LDH growth assay (Parasite Assay), antiparasite potency. The class given is cell-based. The note with it: 72 h, parasite LDH growth assay, ring stage parasites, 72 hours incubation at 37° C.; read-out: EC50. In outline:
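Growth was read by an LDH assay after a freeze–thaw cycle (−80 °C overnight, 4 h thaw at RT). Before that, parasites grew with compound for 72 h at 37 °C under gassed, humidified conditions. The input was a ring-stage culture adjusted to 0.7% parasitemia and 2% haematocrit in serum (5%)/albumax (0.5%)-supplemented RPMI-Hepes.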

The subject of test [1] is PbmCherryLuci sporozoites. Nature of the test: Inhibition of liver to blood transition in C57BL/6 mice (FIG. 8). The class given is in vivo, Plasmodium berghei. The method, then: 40,000 PbmCherryLuci sporozoites (or the indicated number of sporozoites) were inoculated i.v. and compounds were administered by oral gavage at indicated time points during liver infection. Liver infection levels and egress of parasites from the liver were measured by bioluminescence signal from the parasites using an In Vivo Imaging System (IVIS, Perkin Elmer) at the peak of liver infection (52 hours post infection, hpi), during liver egress (55 hpi) as well as during the first round of blood infection (65 hpi). Initiation of blood infection was also measured by flow cytometry at 65 hpi using the mCherry reporter to determine the parasitemia of this first round of blood infection. These analyses allowed quantification of the efficacy of drug killing of parasites in the liver (52 hpi), preventing their egress from the liver (55 hpi) or preventing their successful infection of the blood (65 hpi). Mice were monitored by giemsa stained thin blood smears for the presence of parasites in the blood for 30 days post infection. If no blood infection was seen during the subsequent 30 days, mice were declared cured of malaria infection.
C57BL/6 mice were administered Example 1A or Example 75A as described in the general experimental procedure.

For another test, the system named is PbmCherryLuci. Nature of the test: Prime/boost immunisation of C57BL/6 mice with Example 75A, mosquito bite challenge (FIG. 9). It counts as in vivo, Plasmodium berghei. Conditions: female C57BL/6, prime/boost, 2 x 500 mg/kg P.O. at 36 and 48 h; 10 mosquito bites at 12 weeks after prime. As to the method:
To investigate if chemoprophylaxis with Example 75A would serve as a chemovaccination as does Example IA, female C57BL/6 mice were immunized using a prime/boost regimen. The first immunisation was with 40,000 PbmCherryLuci salivary gland sporozoites i.v. followed by two doses of Example 75A at 500 mg/kg P.O. (given at 36 and 48 hours post infection). The second immunisation (boost) was six weeks later, this time with 20,000 PbmCherryLuci sporozoites but with Example 75A treatment as for the prime immunisation. Six weeks after the boost immunisation (twelve weeks after the prime immunisation) the immunised mice were challenged with the bites of 10 PbmCherryLuci infected mosquitoes for 15 minutes. Giemsa stained thin blood smears were analysed until day 30 for the presence of parasites in the blood and mice were considered to be protected from infection if no blood parasites were observed within the 30 days post mosquito bite challenge.

Test [2] relates to PMIX. Nature of the test: Cleavage of PMIX substrates RAP1 and ASP in parasite extracts. The class given is cell-based, P. falciparum. The method, then: To confirm that Example 1A was a dual inhibitor of PMIX and PMX function, the ability of this compound to inhibit cleavage of the known PMIX substrate Rhoptry Associated Protein 1 (RAPI) in parasite extracts was tested (Pino et al., 2017). RAP1 is a merozoite rhoptry protein that is localized to the parasitophorous vacuole after invasion and processed by both PMIX and SUB1 (Pino et al., 2017). […] RAP1 was not released into the parasite supernatant because it was deposited in the parasitophorous vacuole during the invasion process (Baldi, D., Andrews, K., Waller, R., Roos, D., Howard, R., Crabb, B. and Cowman, A. (2000)). RAP1 controls rhoptry targeting of RAP2 in the malaria parasite Plasmodium falciparum. Embo Journal 19, 2435-2443.

Test [3] concerns PMIX. Nature of the test: Autocatalytic processing of PMIX to p55. The class given is cell-based. The note with it: P. falciparum parasite. From the text:
The development of Example 1A as a PMIX/PMX dual inhibitor of the P. falciparum parasite has allowed for the analysis of the function of these aspartic acid proteases. To do this, PMIX was processed to a 55 kDa (p55) protein and this was not inhibited by E64.

The next test addresses PMX (Plasmodium falciparum, UniProt Q8IAS0). Details: endogenous in cells. The note with it: negative control, literature (Salmon et al. 2001); cited from earlier work.

Molecules are shown by their SMILES.

Sequence of PMX (Q8IAS0 222-573): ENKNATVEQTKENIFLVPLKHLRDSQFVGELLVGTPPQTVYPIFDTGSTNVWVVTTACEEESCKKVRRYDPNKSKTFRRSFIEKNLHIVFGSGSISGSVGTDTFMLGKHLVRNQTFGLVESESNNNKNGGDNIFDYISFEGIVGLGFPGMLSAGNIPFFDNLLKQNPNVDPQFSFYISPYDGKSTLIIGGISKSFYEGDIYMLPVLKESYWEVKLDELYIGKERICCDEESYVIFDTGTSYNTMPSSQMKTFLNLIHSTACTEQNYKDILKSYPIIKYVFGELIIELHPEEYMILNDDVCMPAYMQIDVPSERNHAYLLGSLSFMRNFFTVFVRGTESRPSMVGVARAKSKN

For `CCC1(CC)CC(=O)N([C@H]2c3cc(C(=O)N[C@@H]4c5ccccc5C[C@H]4O)ccc3O[C@@]2(C)COC)C(=N)N1` [Example 75A, (2R,3S)-3-(4,4-diethyl-2-imino-6-oxotetrahydropyrimidin-1(2H)-yl)-N-((1R,2R)-2-hydroxy-2,3-dihydro-1H-inden-1-yl)-2-(methoxymethyl)-2-methyl-2,3-dihydrobenzofuran-5-carboxamide], in the test with parasite, the EC50 came out at 0.4 nM. Also, the mice protected was 8 mice in test [1] (300 mg/kg) and 10/11 in test [1] (500 mg/kg). The “detection of parasites in the blood” value in test [1] (lower doses (below 300 mg/kg)) is “large delays in the detection of parasites in the blood”. The “sterile protection from reinfection” value in the test on PbmCherryLuci was 100%.

`CCC1(CC)CC(=O)N([C@H]2c3cc(C(=O)N[C@@H]4c5ccccc5OC(C)(C)[C@H]4O)ccc3OC[C@]2(C)OC)C(=N)N1` [Example 296, (3R,4S)-4-(4,4-diethyl-2-imino-6-oxo-hexahydropyrimidin-1-yl)-N-[(3S,4R)-3-hydroxy-2,2-dimethyl-chroman-4-yl]-3-methoxy-3-methyl-chromane-6-carboxamide]: the EC50 in the test with parasite was 0.3 nM.

As to `CCC1(CC)CC(=O)N([C@H]2c3cc(C(=O)N[C@@H]4c5ccccc5OC(C)(C)[C@H]4O)ccc3OC[C@H]2COC)C(=N)N1` [Example 298, (3R,4R)-4-(4,4-diethyl-2-imino-6-oxotetrahydropyrimidin-1(2H)-yl)-N-((3S,4R)-3-hydroxy-2,2-dimethylchroman-4-yl)-3-(methoxymethyl)chromane-6-carboxamide], the EC50 in the test on parasite came to 0.5 nM.

For `CCC1(CC)CC(=O)N([C@H]2c3cc(C(=O)N[C@@H]4c5ccccc5OC(C)(C)[C@H]4O)ccc3OC[C@@H]2COC)C(=N)N1` [Example 299, (3S,4R)-4-(4,4-diethyl-2-imino-6-oxo-hexahydropyrimidin-1-yl)-N-[(3S,4R)-3-hydroxy-2,2-dimethyl-chroman-4-yl]-3-(methoxymethyl)chromane-6-carboxamide], the EC50 with parasite turned out to be 0.8 nM.

Turning to `CC(C)C[C@H](NC(=O)[C@H]1O[C@@H]1C(=O)O)C(=O)NCCCCN=C(N)N` [Example E64, reference compound], the “RAP1 processing by PMIX and SUB1” value in the test with PMIX [2] (treated parasites/merozoites, processed forms p82 and p69, unprocessed p87) was “processed normally by PMIX and SUB1”. In addition, the “Apical Sushi Protein (ASP) processing by PMIX” value with PMIX [2] (treated parasites, p47 processed, p87 full-length) is reported as “processed into a 47 kDa polypeptide (p47)”. Moreover, the “PMIX processing to 55 kDa (p55) protein” value with PMIX [3] is “not inhibited”. The SERA5 processing entry at PMX is given as “does not affect SERA5 processing”.
